# Patent US11613552B2, “Pharmaceutical agents, compositions, and methods relating thereto” (Alltech, Inc., priority 2017, dated 2023)
# Key:
# [1] = target: T1, Insrβ (Mus musculus, UniProt P15208); assay: Western blot of Insrβ phosphorylation in skeletal muscle of Lepr^db/db mice; format: in vivo; conditions: 0.136 mg/kg ip daily
# T1 construct: gastrocnemius skeletal muscle and liver samples were collected and stored at −80° C; from tissue; host or cells: gastrocnemius skeletal muscle (A22) and liver (A24) of Lepr db/db mice
# Description: Male Lepr^db/db mice (C57BL/6J strain, purchased from The Jackson Laboratory) at postnatal day 38 were intraperitoneally injected daily with physiological saline ([…]) containing 0.2% DMSO, or 0.136 mg of Compound #43 per kilogram body weight, diluted in the sterile physiological saline) for 52 days. After the treatment, gastrocnemius skeletal muscle and liver samples were collected and stored at −80° C.
# Frozen skeletal muscle and liver tissues were minced in sterile ice-old PBS containing complete proteinase and phosphatase inhibitors (Thermo-Fisher Scientific, Waltham, Mass.) and subjected to homogenization using a tissue homogenizer (Thermo-Fisher Scientific, Waltham, Mass.). These tissue homogenates were diluted in Themo-Fisher's premade RIPA buffer (1 part homogenate/2 part of RIPA buffer) containing complete proteinase/phosphatase inhibitors to extract the proteins. Proteins in the homogenates were extracted in RIPA buffer at 4° C. overnight. These overnight-extracted protein/tissue lysates were centrifuged at 12000×g for 30 min at 4° C., and the protein levels in the supernatant of these tissue lysates were determined using the Pierce Micro-BCA protein assay kit (Thermo Scientific-Piece Biotechnology, Rockford, Ill.) according to the manufacturer's protocol. […]
# [2] = test system: PDK1/AKT/FOXO1; assay: Western blot of PDK1/AKT/FOXO1 in serum-starved HepG2 cells; format: cell-based, human
# Description: HepG2 cells were seeded on 6-well plates (7×10^5 cells/well) and cultured in 10% FBS EMEM media for 30 hr. Then these cells were washed twice with PBS to remove residual sera, and serum-starved in plain EMEM media overnight. […]
# After the above described treatments, cultured HepG2 and AML-12 cells were rinsed twice with ice-cold PBS and lysed in ice-cold RIPA buffer containing complete proteinase and phosphatase inhibitors (Thermo-Fisher Scientific, Waltham, Mass.) on ice for 30 min. Cell lysates were collected using a cell scraper and transfer pipette, and then centrifuged at 12000×g for 30 min at 4° C. to remove the DNA pellet and obtain the protein extract. Protein levels in the supernatant of these cell lysates were determined using the Pierce Micro-BCA protein assay kit (Thermo Scientific-Piece Biotechnology, Rockford, Ill.) according to the manufacturer's protocol.
# (§1) One hundred micrograms of liver tissue proteins or five micrograms of total proteins from control- and compound(s)-treated HepG2 or AML-12 cells were subjected to SDS-PAGE gel separation and then transferred to PVDF membranes, as described previously (Reddy et al. 2008 Science). Membranes were blocked in a phosphate-buffered saline (PBS) containing 5% (w/v) of bovine serum albumin (Sigma, St. Louis, Mo.) and incubated with specific primary antibodies followed by the incubation with HRP-conjugated anti-mouse or anti-rabbit secondary antibodies (1:5000 dilution, Cell Signaling Inc.). All primary antibodies except Gapdh (Li-COR, Lincoln, Nebr.) were purchased from Cell Signaling Inc. Positive signals on the membrane blots were detected using the Amersham's enhanced chemiluminescence Western Blotting Prime Detection reagents (GE Healthcare Lifescience, Pittsburgh, Pa.). Images of these luminescence signals on the membrane blots were captured using the LI-COR Odyssey Fc Image system (Lincoln, Nebr.). The same membrane blot was stripped and re-blotted with another antibody as described in the GE WB ECL-prime-detection protocol (GE healthcare Lifescience, Pittsburgh, Pa.). Protein band densities in the Western blots were determined using the NIH ImageJ software and then normalized by Gapdh or Actb/ACTB level in each sample. Data are presented as mean±SEM of three samples per each group.
# [3] = test system: Pdk1/Akt/Foxo1; assay: Western blot of Pdk1/Akt/Foxo1 signaling in livers of Lepr^db/db mice; format: in vivo, mouse; conditions: 25 μg selenium/kg ip daily, 52 days (FIG. 12)
# Description: Male Lepr^db/db mice (C57BL/6J strain, purchased from The Jackson Laboratory) at postnatal day 38 were intraperitoneally injected daily with physiological saline ([…]) containing 0.2% DMSO, Compound #43 (25 μg selenium or sulfur equivalent of each compound per kilogram body weight, diluted in sterile physiological saline) for 52 days. After the treatment, livers were collected and stored at −80° C.
# Frozen liver tissues were minced in sterile ice-old PBS containing complete proteinase and phosphatase inhibitors (Thermo-Fisher Scientific, Waltham, Mass.) and subjected to homogenization using a tissue homogenizer (Thermo-Fisher Scientific, Waltham, Mass.). These tissue homogenates were diluted in Themo-Fisher's premade RIPA buffer (1 part homogenate/2 part of RIPA buffer) containing complete proteinase/phosphatase inhibitors to extract the proteins. Proteins in the homogenates were extracted in RIPA buffer at 4° C. overnight. These overnight-extracted protein lysates were centrifuged at 12000×g for 30 min at 4° C., and the protein levels in the supernatant of these tissue lysates were determined using the Pierce Micro-BCA protein assay kit (Thermo Scientific-Piece Biotechnology, Rockford, Ill.) according to the manufacturer's protocol.
# as §1
# T1 sequence (P15208 753-1372 limits assumed): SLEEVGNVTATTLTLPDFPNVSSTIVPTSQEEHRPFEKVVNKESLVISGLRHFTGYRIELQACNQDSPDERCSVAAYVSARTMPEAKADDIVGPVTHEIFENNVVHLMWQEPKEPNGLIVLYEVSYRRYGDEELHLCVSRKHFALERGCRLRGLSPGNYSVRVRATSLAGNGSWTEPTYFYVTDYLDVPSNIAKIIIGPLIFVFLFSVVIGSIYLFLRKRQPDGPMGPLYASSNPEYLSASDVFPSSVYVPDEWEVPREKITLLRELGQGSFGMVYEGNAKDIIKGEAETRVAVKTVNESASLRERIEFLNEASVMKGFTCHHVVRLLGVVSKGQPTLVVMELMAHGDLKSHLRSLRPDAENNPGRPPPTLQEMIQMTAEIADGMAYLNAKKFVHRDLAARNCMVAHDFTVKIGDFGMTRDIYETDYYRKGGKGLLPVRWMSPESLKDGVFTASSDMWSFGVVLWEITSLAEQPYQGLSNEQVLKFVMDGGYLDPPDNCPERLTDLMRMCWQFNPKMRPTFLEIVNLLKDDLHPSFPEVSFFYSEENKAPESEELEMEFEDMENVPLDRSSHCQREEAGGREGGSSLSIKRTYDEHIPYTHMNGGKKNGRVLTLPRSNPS
# T1 sequence (P15208 28-748 partner limits assumed): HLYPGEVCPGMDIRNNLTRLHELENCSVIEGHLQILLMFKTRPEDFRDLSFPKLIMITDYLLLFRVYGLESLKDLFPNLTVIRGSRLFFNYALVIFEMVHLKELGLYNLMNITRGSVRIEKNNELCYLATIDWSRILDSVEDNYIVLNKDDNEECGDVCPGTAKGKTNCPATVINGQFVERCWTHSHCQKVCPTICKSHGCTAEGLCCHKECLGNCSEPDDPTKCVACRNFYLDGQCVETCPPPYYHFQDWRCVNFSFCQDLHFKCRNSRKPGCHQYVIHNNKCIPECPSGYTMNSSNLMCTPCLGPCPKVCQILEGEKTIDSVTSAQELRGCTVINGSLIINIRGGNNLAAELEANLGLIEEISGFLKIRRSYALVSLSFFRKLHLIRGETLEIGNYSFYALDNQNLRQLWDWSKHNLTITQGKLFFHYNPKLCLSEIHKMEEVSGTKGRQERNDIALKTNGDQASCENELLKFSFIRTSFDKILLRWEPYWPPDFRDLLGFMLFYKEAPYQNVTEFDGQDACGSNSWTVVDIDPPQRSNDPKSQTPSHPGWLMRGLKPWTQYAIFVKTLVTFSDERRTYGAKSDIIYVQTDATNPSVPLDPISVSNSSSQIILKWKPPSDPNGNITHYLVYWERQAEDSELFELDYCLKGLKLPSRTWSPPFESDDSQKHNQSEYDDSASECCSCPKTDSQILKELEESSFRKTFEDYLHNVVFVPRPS
structure (smiles),measurement,setting,value
"C[Se]C[C@H]1O[C@@H](n2cnc3c(N)ncnc32)C(OC(C)=O)C1OC(C)=O (stereo partly shown) [Compound #43, Adenosine, 5′-Se-methyl-5′-selino-, 2′,3′-diacetate]",increase of phosphorylated Insrβ (Tyrosine 1146) in skeletal muscle,[1]; 52 days (FIG. 20B),~2.5 fold
same,total Insrβ protein levels in skeletal muscle,[1]; 52 days (FIG. 20C),no significant change of total Insrβ protein levels
same,time of peak increase of pPDK1,[2]; 600 ppb,60-90 minutes
same,phosphorylated AKT at T308,"[2]; 600 ppb, 30, 60, 90 minutes and 24 hr (FIG. 13C)",significant and transient increase of phosphorylated AKT at T308
same,phosphorylated FOXO1 at T24,"[2]; 600 ppb, 90 minutes and longer (FIG. 13E)",significantly increased
same,total AKT protein levels,"[2]; 600 ppb, all tested time points",not significantly altered
same,total Foxo1 protein levels,"[2]; 600 ppb, less than 24 hours",no significant change in total FOXO1 protein levels
same,total Foxo1 protein levels,"[2]; 600 ppb, prolonged treatment 30 hr or 48 hr",slight but statistically significant decrease of total FOXO1 proteins
same,pPDK1 protein level,"[2]; 600 ppb, serum-free, 30, 60, 90 minutes (FIG. 13B)",significant and transient increase of pPDK1
same,pAkt (Threonine 308) protein level in liver,[3],significantly elevated
same,pFoxo1 (Serine 256) protein level in liver,[3],significantly elevated
same,pPdk1 protein level in liver,[3],significantly elevated
same,total Akt levels in liver,[3],no significant change
